In assay [1] the target is AEA-DA lipid probe targets in Neuro2a cells (Mus musculus, UniProt Q9Z2G6).
For assay [2], the target named is T1, AEA-DA lipid probe targets in Neuro2a cells (Mus musculus, UniProt Q61753).
T1 sequence (Q61753 1-533): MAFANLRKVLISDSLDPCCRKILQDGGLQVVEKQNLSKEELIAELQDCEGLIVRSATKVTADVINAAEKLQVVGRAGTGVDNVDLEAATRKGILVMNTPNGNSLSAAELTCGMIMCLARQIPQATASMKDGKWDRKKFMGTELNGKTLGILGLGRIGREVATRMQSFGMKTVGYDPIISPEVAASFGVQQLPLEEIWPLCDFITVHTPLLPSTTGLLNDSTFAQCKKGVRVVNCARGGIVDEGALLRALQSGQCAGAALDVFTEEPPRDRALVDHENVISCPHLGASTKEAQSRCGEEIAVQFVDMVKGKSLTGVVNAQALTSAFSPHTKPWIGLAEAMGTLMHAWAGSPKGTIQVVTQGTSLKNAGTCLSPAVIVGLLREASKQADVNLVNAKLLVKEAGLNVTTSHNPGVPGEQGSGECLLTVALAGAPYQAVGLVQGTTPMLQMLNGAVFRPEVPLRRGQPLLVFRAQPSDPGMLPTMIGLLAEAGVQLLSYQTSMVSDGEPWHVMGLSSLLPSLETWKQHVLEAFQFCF

Assay [3] deals with AEA-DA lipid probe targets in Neuro2a cells (Mus musculus, UniProt Q9DBC7).
AEA-DA lipid probe targets in Neuro2a cells (Mus musculus, UniProt Q9DBC7), sequence (Q9DBC7 whole entry): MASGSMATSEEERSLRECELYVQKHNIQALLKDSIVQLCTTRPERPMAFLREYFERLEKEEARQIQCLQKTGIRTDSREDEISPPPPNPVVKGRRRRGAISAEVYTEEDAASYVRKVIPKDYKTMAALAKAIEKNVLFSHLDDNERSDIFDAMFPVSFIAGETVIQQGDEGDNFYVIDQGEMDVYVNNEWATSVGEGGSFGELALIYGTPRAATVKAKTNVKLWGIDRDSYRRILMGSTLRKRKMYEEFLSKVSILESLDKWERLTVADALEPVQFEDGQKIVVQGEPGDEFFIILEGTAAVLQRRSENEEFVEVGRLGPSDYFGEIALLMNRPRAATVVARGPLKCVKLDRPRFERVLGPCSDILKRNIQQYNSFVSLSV
The target in assay [4] is T2, AEA-DA lipid probe targets in Neuro2a cells (Mus musculus, UniProt Q8BH59).
T2 sequence (Q8BH59 1-677): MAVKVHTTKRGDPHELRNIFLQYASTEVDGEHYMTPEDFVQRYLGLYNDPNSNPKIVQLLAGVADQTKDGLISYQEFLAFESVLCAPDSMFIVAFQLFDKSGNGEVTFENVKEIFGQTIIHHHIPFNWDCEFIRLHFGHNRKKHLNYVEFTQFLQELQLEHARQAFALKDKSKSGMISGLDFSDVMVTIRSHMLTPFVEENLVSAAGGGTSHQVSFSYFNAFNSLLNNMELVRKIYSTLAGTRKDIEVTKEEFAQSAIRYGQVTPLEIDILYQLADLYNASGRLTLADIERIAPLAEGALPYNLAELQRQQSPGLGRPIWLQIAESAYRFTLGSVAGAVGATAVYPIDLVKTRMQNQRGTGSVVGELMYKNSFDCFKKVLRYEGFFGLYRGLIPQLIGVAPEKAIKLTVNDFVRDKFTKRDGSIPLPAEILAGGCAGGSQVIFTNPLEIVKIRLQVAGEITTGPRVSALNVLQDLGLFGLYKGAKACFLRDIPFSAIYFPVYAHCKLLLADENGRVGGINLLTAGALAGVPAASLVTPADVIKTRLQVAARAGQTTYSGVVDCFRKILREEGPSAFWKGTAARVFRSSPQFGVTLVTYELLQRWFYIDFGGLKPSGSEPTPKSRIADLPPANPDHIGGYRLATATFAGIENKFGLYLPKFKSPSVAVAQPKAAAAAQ

Assay [5] deals with AEA-DA lipid probe targets in Neuro2a cells (Mus musculus, UniProt Q99KQ4).
AEA-DA lipid probe targets in Neuro2a cells (Mus musculus, UniProt Q99KQ4), sequence (Q99KQ4 whole entry): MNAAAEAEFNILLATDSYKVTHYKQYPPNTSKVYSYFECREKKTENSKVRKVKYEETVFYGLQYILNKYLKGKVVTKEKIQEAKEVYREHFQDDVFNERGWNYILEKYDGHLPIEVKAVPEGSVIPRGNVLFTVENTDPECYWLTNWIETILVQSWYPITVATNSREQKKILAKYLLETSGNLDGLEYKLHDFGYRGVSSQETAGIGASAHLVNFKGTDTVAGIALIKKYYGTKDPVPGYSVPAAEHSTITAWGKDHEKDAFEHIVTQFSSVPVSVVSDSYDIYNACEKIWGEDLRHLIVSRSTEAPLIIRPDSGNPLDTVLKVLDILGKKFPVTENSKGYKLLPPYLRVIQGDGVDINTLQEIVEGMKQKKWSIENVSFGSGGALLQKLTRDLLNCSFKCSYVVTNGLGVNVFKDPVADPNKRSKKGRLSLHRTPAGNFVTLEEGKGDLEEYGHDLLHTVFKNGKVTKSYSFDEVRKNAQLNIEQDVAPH
In assay [6] the target is T3, AEA-DA lipid probe targets in Neuro2a cells (Mus musculus, UniProt Q62186).
T3 sequence (Q62186 24-172): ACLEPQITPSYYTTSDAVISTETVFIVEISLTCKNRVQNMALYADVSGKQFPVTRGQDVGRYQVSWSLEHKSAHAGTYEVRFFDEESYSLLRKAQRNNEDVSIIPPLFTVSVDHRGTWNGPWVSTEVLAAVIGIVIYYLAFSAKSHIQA

The target in assay [7] is T4, AEA-DA lipid probe targets in Neuro2a cells (Mus musculus, UniProt Q9QZD8).
T4 sequence (Q9QZD8 1-287): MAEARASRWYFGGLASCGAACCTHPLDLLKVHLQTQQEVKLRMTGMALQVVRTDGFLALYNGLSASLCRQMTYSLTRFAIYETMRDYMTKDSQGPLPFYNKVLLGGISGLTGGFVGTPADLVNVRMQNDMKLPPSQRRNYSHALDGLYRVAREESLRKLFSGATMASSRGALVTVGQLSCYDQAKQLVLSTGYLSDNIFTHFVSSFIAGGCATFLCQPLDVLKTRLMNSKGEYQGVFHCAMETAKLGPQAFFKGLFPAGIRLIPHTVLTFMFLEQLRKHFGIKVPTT

For assay [8], the target named is T5, AEA-DA lipid probe targets in Neuro2a cells (Mus musculus, UniProt Q8BSF4).
T5 sequence (Q8BSF4 50-406): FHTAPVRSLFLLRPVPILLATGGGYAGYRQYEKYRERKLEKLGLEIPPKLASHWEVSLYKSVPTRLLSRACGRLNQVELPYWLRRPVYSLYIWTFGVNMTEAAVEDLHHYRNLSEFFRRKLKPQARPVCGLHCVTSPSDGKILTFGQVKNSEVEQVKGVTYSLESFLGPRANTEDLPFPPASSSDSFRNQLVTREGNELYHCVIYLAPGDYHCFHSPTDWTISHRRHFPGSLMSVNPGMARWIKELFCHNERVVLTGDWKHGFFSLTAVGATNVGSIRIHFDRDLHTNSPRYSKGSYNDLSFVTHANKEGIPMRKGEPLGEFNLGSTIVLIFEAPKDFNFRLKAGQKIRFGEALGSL

The target in assay [9] is T6, AEA-DA lipid probe targets in Neuro2a cells (Mus musculus, UniProt Q61335).
T6 sequence (Q61335 1-245): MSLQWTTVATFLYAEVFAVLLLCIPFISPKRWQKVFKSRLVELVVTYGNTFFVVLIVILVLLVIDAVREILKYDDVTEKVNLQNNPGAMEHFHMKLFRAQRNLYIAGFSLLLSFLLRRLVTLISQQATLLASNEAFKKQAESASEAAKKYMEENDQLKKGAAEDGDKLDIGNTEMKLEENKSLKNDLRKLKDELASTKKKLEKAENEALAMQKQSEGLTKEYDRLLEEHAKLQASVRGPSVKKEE

The target of assay [10] is AEA-DA lipid probe targets in Neuro2a cells (Mus musculus, UniProt P36536).
AEA-DA lipid probe targets in Neuro2a cells (Mus musculus, UniProt P36536), sequence (P36536 whole entry): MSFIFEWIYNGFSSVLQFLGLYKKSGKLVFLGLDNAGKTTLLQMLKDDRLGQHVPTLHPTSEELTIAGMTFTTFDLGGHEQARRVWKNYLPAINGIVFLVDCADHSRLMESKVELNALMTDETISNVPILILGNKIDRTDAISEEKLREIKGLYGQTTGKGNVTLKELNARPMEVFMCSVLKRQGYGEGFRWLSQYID

Read-outs that look alike come from different tables or passages of the source.

Results on five compounds are retold here after patent US10168342B2, “Lipid probes and uses thereof” (THE SCRIPPS RESEARCH INSTITUTE, priority 2015, dated 2019).

AEA-DA lipid probe targets in Neuro2a cells (Mus musculus, UniProt Q9Z2G6), sequence (Q9Z2G6 22-790): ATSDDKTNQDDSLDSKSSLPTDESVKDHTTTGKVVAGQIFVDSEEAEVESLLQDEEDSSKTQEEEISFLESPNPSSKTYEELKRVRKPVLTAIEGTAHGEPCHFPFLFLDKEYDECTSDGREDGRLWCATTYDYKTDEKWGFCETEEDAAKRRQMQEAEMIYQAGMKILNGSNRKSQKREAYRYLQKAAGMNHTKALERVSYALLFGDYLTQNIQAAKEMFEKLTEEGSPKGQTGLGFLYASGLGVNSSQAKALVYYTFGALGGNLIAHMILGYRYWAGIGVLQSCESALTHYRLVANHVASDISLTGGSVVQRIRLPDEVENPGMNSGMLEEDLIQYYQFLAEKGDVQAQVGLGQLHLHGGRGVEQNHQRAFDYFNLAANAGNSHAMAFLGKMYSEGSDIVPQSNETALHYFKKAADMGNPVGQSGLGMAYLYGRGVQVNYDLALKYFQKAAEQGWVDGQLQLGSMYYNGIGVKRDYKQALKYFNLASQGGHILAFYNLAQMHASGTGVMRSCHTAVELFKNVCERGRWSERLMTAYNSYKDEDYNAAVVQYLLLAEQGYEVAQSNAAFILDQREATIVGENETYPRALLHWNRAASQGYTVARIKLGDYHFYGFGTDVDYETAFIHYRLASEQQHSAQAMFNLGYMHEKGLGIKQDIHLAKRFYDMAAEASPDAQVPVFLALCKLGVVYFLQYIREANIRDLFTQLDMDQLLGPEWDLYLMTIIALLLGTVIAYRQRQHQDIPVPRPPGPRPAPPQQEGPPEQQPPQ

Turning to `CCCCC/C=C\C/C=C\C/C=C\C/C=C\CCCC(=O)NCCO` [AEA, anandamide, reference compound], in [1] (competitor 200 μM), the “SILAC ratio, Sel1l” value is 1.6. In addition, in assay [2] (competitor 200 μM), the “SILAC ratio Phgdh” value turned out to be 1.2. The “SILAC ratio, Prkar1a” value in [3] (competitor 200 μM) turned out to be 1.2. Further, in assay [4] (competitor 200 μM), the “SILAC ratio Slc25a12” value was found to be 1.1. Further, the “SILAC ratio, Nampt” value in assay [5] (competitor 200 μM) is 1.1. In addition, in assay [6] (competitor 200 μM), the “SILAC ratio, Ssr4” value amounted to 1.8. Also, in assay [7] (competitor 200 μM), the “SILAC ratio Slc25a10” value amounted to 1.2. The “SILAC ratio, Pisd” value in assay [8] (competitor 200 μM) is recorded as 1.8. The “SILAC ratio, Bcap31” value in [9] (competitor 200 μM) came out at 2.3.
Turning to `O=C(/C=C/c1cccnc1)NCCCCC1CCN(C(=O)c2ccccc2)CC1` [FK-866, reference compound], the “SILAC ratio, Sel1l” value in assay [1] (competitor 25 μM) is listed as 1.4. The “SILAC ratio Phgdh” value in assay [2] (competitor 25 μM) turned out to be 1.3. Besides, the “SILAC ratio, Prkar1a” value in assay [3] (competitor 25 μM) turned out to be 1.5. Besides, the “SILAC ratio Slc25a12” value in assay [4] (competitor 25 μM) turned out to be 1.1. Besides, the “SILAC ratio, Sar1a” value in [10] (competitor 25 μM) is reported as 1.0. Also, the “SILAC ratio, Nampt” value in assay [5] (competitor 25 μM) was 16.4. Also, the “SILAC ratio, Ssr4” value in [6] (competitor 25 μM) amounted to 1.2. In assay [7] (competitor 25 μM), the “SILAC ratio Slc25a10” value came to 1.2. Also, the “SILAC ratio, Bcap31” value in assay [9] (competitor 25 μM) is listed as 1.6.
As to `CN1CCN(C(=O)c2c(-c3ccccc3)c3cc([N+](=O)[O-])ccc3n2C)CC1` [KML110, (1-Methyl-5-nitro-3-phenyl-1H-indol-2-yl)(4-methylpiperazin-1-yl)methanone], the “SILAC ratio, Sel1l” value in assay [1] (competitor 25 μM) was 1.5. Further, the “SILAC ratio Phgdh” value in [2] (competitor 25 μM) is 1.5. Further, in assay [3] (competitor 25 μM), the “SILAC ratio, Prkar1a” value turned out to be 1.6. Also, the “SILAC ratio Slc25a12” value in assay [4] (competitor 25 μM) was 1.1. The “SILAC ratio, Sar1a” value in [10] (competitor 25 μM) is on record as 1.4. In assay [5] (competitor 25 μM), the “SILAC ratio, Nampt” value was found to be 2.0. Moreover, the “SILAC ratio, Ssr4” value in assay [6] (competitor 25 μM) amounted to 1.5. Moreover, the “SILAC ratio Slc25a10” value in [7] (competitor 25 μM) turned out to be 1.2. The “SILAC ratio, Pisd” value in assay [8] (competitor 25 μM) worked out at 1.4. In assay [9] (competitor 25 μM), the “SILAC ratio, Bcap31” value is reported as 2.0.
Consider `CN1CCN(C(=O)c2[nH]c3ccc([N+](=O)[O-])cc3c2-c2ccccc2)CC1` [MJN228, (4-Methylpiperazin-1-yl)(5-nitro-3-phenyl-1H-indol-2-yl)methanone], for which the “SILAC ratio, Sel1l” value in [1] (competitor 10 μM) came to 1.2; in assay [1] (competitor 25 μM), 1.5; in [1] (competitor 50 μM), 1.5; in [1] (competitor 100 μM), 1.9. Further, the “SILAC ratio Phgdh” value in assay [2] (competitor 10 μM) worked out at 1.2; in [2] (competitor 25 μM), 1.1; in assay [2] (competitor 50 μM), 0.9; in assay [2] (competitor 100 μM) it was 1.1. Also, the “SILAC ratio, Prkar1a” value turned out to be 1.9 in [3] (competitor 10 μM), 1.9 in assay [3] (competitor 25 μM), 2.1 in assay [3] (competitor 50 μM) and 2.8 in [3] (competitor 100 μM). Moreover, the “SILAC ratio Slc25a12” value in [4] (competitor 10 μM) stood at 1.0; in assay [4] (competitor 25 μM), 1.0; in [4] (competitor 50 μM), 0.9; in assay [4] (competitor 100 μM), 1.0. Moreover, the “SILAC ratio, Sar1a” value in [10] (competitor 10 μM) is on record as 1.3; in [10] (competitor 25 μM), 1.7; in assay [10] (competitor 50 μM), 1.7; in assay [10] (competitor 100 μM), 2.2. In addition, the “SILAC ratio, Nampt” value in [5] (competitor 25 μM) is recorded as 1.2; in [5] (competitor 50 μM), 1.0. In addition, the “SILAC ratio, Ssr4” value in [6] (competitor 10 μM) worked out at 1.5; in assay [6] (competitor 25 μM) it was 1.9; in assay [6] (competitor 50 μM), 2.4; in assay [6] (competitor 100 μM), 2.6. In addition, the “SILAC ratio Slc25a10” value in assay [7] (competitor 10 μM) is reported as 1.2; in assay [7] (competitor 25 μM) it was 1.2; in assay [7] (competitor 50 μM) it was 1.3; in [7] (competitor 100 μM) it was 1.0. In addition, the “SILAC ratio, Pisd” value in assay [8] (competitor 25 μM) stood at 1.4. For the same compound, the “SILAC ratio, Bcap31” value is recorded as 2.1 in assay [9] (competitor 10 μM), 2.5 in assay [9] (competitor 25 μM), 3.8 in [9] (competitor 50 μM) and 4.0 in assay [9] (competitor 100 μM).
As for `C=CCN(C)CCCCCCOc1ccc(C(=O)c2ccc(Br)cc2)c(F)c1` [Ro 48-8071, reference compound], the “SILAC ratio, Sel1l” value in [1] (competitor 25 μM) is on record as 1.2. For the same compound, the “SILAC ratio Phgdh” value in assay [2] (competitor 25 μM) came to 1.0. Moreover, the “SILAC ratio, Prkar1a” value in assay [3] (competitor 25 μM) came to 1.0. In addition, the “SILAC ratio Slc25a12” value in assay [4] (competitor 25 μM) is listed as 1.0. In assay [10] (competitor 25 μM), the “SILAC ratio, Sar1a” value is listed as 1.1. Moreover, in assay [5] (competitor 25 μM), the “SILAC ratio, Nampt” value worked out at 0.9. For the same compound, the “SILAC ratio, Ssr4” value in assay [6] (competitor 25 μM) was 1.2. Besides, in [7] (competitor 25 μM), the “SILAC ratio Slc25a10” value came to 0.9. Besides, the “SILAC ratio, Pisd” value in assay [8] (competitor 25 μM) amounted to 1.3. In assay [9] (competitor 25 μM), the “SILAC ratio, Bcap31” value is on record as 1.4.
